According to patent US12371454B2, “Cyclic peptide compound having Kras inhibitory action” (priority 2019, dated 2025):
Starred links: 1 amine or outer side, 2 acyl side, 3 side chain; linkers in the order of their positions; H or OH if unused. Positions of bridges follow the written chain, without caps; N, C: chain ends. Non-standard residues stand in square brackets, D forms with d. Residues, ends and D or L forms follow the SMILES beside them. *: point of attachment. hPhe(3,5-F2-4-CF3) = N[C@@H](CCc1cc(F)c(C(F)(F)F)c(F)c1)C(=O)O; hPhe(3-Cl-4-CF3) = N[C@@H](CCc1ccc(C(F)(F)F)c(Cl)c1)C(=O)O; X38 = CN([C@@H](Cc1cccc(OC(F)(F)F)c1)C(=O)[*:2])[*:1]; NMePhe(4-CF3) = CN[C@@H](Cc1ccc(C(F)(F)F)cc1)C(=O)O; NMePhe(3,4-F2) = CN[C@@H](Cc1ccc(F)c(F)c1)C(=O)O; X5 = CC(C)(C)NC(=O)COC[C@H](CC(=O)[*:1])N[*:2]; NMePhe(3-OMe) = CN[C@@H](Cc1cccc(OC)c1)C(=O)O; NMePhe(4-CN) = CN[C@@H](Cc1ccc(C#N)cc1)C(=O)O; NMePhe(4-Me) = CN[C@@H](Cc1ccc(C)cc1)C(=O)O; NMePhe(3-I) = CN[C@@H](Cc1cccc(I)c1)C(=O)O; NMePhe(4-F) = CN[C@@H](Cc1ccc(F)cc1)C(=O)O; NMePhe(4-I) = CN[C@@H](Cc1ccc(I)cc1)C(=O)O; dβ3hPip = O=C(C[C@H]1CCCCN1[*:1])[*:2]; NMeY = CN[C@@H](Cc1ccc(O)cc1)C(=O)O; NMeI = CC[C@H](C)[C@H](NC)C(=O)O; d(β3hL) = CC(C)C[C@@H](N)CC(=O)O; dNMeF = CN[C@H](Cc1ccccc1)C(=O)O; NMeD = CN[C@@H](CC(=O)O)C(=O)O; NMeL = CN[C@@H](CC(C)C)C(=O)O; NMeA = CN[C@@H](C)C(=O)O; Piperidide = C1CCN(*)CC1; Ac5c = NC1(C(=O)O)CCCC1; Aze = O=C(O)[C@@H]1CCN1; Sar = CNCC(=O)O

These molecules were tested against T1, Kras and SOS1 (biotin-tagged human Kras loaded with GDP, His-tagged human SOS1) (Homo sapiens, UniProt P01116, G12D) (assay: Protein-protein interaction inhibition between Kras and SOS1 (KrasGl2D-SOS PPI) using AlphaScreen). Conditions: AlphaScreen; biotin-tagged human Kras loaded with GDP, His-tagged human SOS1; read-out: KRAS G12D-SOS PPI IC50.
T1 construct: made in house; host or cells: E. coli (stated for Kras only)
T1 sequence (P01116 1-188 isoform P01116-2 G12D): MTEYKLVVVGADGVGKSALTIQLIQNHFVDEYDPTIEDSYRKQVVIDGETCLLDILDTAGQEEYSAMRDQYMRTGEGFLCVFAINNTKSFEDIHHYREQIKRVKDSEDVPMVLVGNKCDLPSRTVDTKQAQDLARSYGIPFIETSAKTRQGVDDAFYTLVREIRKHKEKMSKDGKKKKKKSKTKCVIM
Type: binding
In short: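 AlphaScreen format: Ni donor beads capture His-SOS1, streptavidin acceptor beads capture biotinylated Kras (E. coli-expressed, GDP-loaded post-purification). Excite 680 nm, read 520-620 nm.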

Structure (SMILES) | IC50 [nM]
CC[C@H](C)[C@@H]1NC(=O)[C@H](CC(C)C)N(C)C(=O)C[C@@H](C(=O)N(C)C)N(C)C(=O)[C@H]([C@@H](C)CC)N(C)C(=O)C2(CCCC2)NC(=O)[C@@H](Cc2ccccc2)N(C)C(=O)[C@H](CCc2ccc(C(F)(F)F)c(Cl)c2)NC(=O)CN(C)C(=O)[C@H](Cc2ccc(C)cc2)N(C)C(=O)[C@@H]2CCN2C(=O)[C@H](C)N(C)C1=O [Compound 1909] ([NMeL]I[NMeA][Aze][NMePhe(4-Me)][Sar][hPhe(3-Cl-4-CF3)][dNMeF][Ac5c][NMeI][NMeD]-NMe2; lactam N-11) | 110
CC[C@H](C)[C@@H]1NC(=O)[C@H](CC(C)C)N(C)C(=O)C[C@@H](C(=O)N(C)C)N(C)C(=O)[C@H]([C@@H](C)CC)N(C)C(=O)C2(CCCC2)NC(=O)[C@H](Cc2cccc(I)c2)N(C)C(=O)[C@H](CCc2ccc(C(F)(F)F)c(Cl)c2)NC(=O)CN(C)C(=O)[C@H](Cc2ccc(C)cc2)N(C)C(=O)[C@@H]2CCN2C(=O)[C@H](C)N(C)C1=O [Compound 1910] ([NMeL]I[NMeA][Aze][NMePhe(4-Me)][Sar][hPhe(3-Cl-4-CF3)][NMePhe(3-I)][Ac5c][NMeI][NMeD]-NMe2; lactam N-11) | 60
CC[C@H](C)[C@@H]1NC(=O)[C@H](CC(C)C)N(C)C(=O)C[C@H]2CCCCN2C(=O)[C@H]([C@@H](C)CC)N(C)C(=O)C2(CCCC2)NC(=O)[C@@H]2CCCN2C(=O)[C@H](CCc2ccc(C(F)(F)F)c(Cl)c2)NC(=O)CN(C)C(=O)[C@H](Cc2ccc(C)cc2)N(C)C(=O)[C@@H]2CCN2C(=O)[C@H](C)N(C)C1=O [Compound 1912] (cyclo([Ac5c][NMeI][dβ3hPip][NMeL]I[NMeA][Aze][NMePhe(4-Me)][Sar][hPhe(3-Cl-4-CF3)]P)) | 27
CC[C@H](C)[C@@H]1NC(=O)[C@H](C)N(C)C(=O)C[C@@H](C(=O)N(C)C)N(C)C(=O)[C@H]([C@@H](C)CC)N(C)C(=O)C2(CCCC2)NC(=O)[C@H](Cc2ccc(F)cc2)N(C)C(=O)[C@H](CCc2cc(F)c(C(F)(F)F)c(F)c2)NC(=O)CN(C)C(=O)[C@H](Cc2ccc(C)cc2)N(C)C(=O)[C@@H]2CCN2C(=O)[C@H](C)N(C)C1=O [Compound 1914] ([NMeA]I[NMeA][Aze][NMePhe(4-Me)][Sar][hPhe(3,5-F2-4-CF3)][NMePhe(4-F)][Ac5c][NMeI][NMeD]-NMe2; lactam N-11) | 7.7
CC[C@H](C)[C@@H]1NC(=O)[C@H](CC(C)C)N(C)C(=O)C[C@@H](CC(C)C)NC(=O)[C@H]([C@@H](C)CC)N(C)C(=O)C2(CCCC2)NC(=O)[C@@H]2CCCN2C(=O)[C@H](CCc2cc(F)c(C(F)(F)F)c(F)c2)NC(=O)CN(C)C(=O)[C@H](Cc2ccc(C(F)(F)F)cc2)N(C)C(=O)[C@@H]2CCN2C(=O)[C@H](C)N(C)C1=O [Compound 1918] (cyclo([Ac5c][NMeI][d(β3hL)][NMeL]I[NMeA][Aze][NMePhe(4-CF3)][Sar][hPhe(3,5-F2-4-CF3)]P)) | 280
CC[C@H](C)[C@@H]1NC(=O)[C@H](C)N(C)C(=O)C[C@@H](C(=O)N(C)C)N(C)C(=O)[C@H]([C@@H](C)CC)N(C)C(=O)C2(CCCC2)NC(=O)[C@H](Cc2cccc(OC)c2)N(C)C(=O)[C@H](CCc2ccc(C(F)(F)F)c(Cl)c2)NC(=O)CN(C)C(=O)[C@H](Cc2ccc(C)cc2)N(C)C(=O)[C@@H]2CCN2C(=O)[C@H](C)N(C)C1=O [Compound 1922] ([NMeA]I[NMeA][Aze][NMePhe(4-Me)][Sar][hPhe(3-Cl-4-CF3)][NMePhe(3-OMe)][Ac5c][NMeI][NMeD]-NMe2; lactam N-11) | 3.1
CC[C@H](C)[C@@H]1NC(=O)[C@H](CC(C)C)N(C)C(=O)C[C@@H](C(=O)N(C)C)N(C)C(=O)[C@H]([C@@H](C)CC)N(C)C(=O)C2(CCCC2)NC(=O)[C@H](Cc2ccc(C#N)cc2)N(C)C(=O)[C@H](CCc2ccc(C(F)(F)F)c(Cl)c2)NC(=O)CN(C)C(=O)[C@H](Cc2ccc(C)cc2)N(C)C(=O)[C@@H]2CCN2C(=O)[C@H](C)N(C)C1=O [Compound 1927] ([NMeL]I[NMeA][Aze][NMePhe(4-Me)][Sar][hPhe(3-Cl-4-CF3)][NMePhe(4-CN)][Ac5c][NMeI][NMeD]-NMe2; lactam N-11) | 3.3
CC[C@H](C)[C@@H]1NC(=O)[C@H](CC(C)C)N(C)C(=O)C[C@@H](C(=O)N(C)C)N(C)C(=O)[C@H]([C@@H](C)CC)N(C)C(=O)C2(CCCC2)NC(=O)[C@H](Cc2ccc(OC)cc2)N(C)C(=O)[C@H](CCc2ccc(C(F)(F)F)c(Cl)c2)NC(=O)CN(C)C(=O)[C@H](Cc2ccc(C)cc2)N(C)C(=O)[C@@H]2CCN2C(=O)[C@H](C)N(C)C1=O [Compound 1935] ([NMeL]I[NMeA][Aze][NMePhe(4-Me)][Sar][hPhe(3-Cl-4-CF3)][NMeY](Me)[Ac5c][NMeI][NMeD]-NMe2; lactam N-11) | 11
CC[C@H](C)[C@@H]1NC(=O)[C@H](C)N(C)C(=O)C[C@@H](C(=O)N2CCCCC2)N(C)C(=O)[C@H]([C@@H](C)CC)N(C)C(=O)C2(CCCC2)NC(=O)[C@@H](Cc2ccccc2)N(C)C(=O)[C@H](CCc2ccc(C(F)(F)F)c(Cl)c2)NC(=O)CN(C)C(=O)[C@H](Cc2ccc(C(F)(F)F)cc2)N(C)C(=O)[C@@H]2CCN2C(=O)[C@H](C)N(C)C1=O [Compound 1942] ([NMeA]I[NMeA][Aze][NMePhe(4-CF3)][Sar][hPhe(3-Cl-4-CF3)][dNMeF][Ac5c][NMeI][NMeD]-Piperidide; lactam N-11) | 290
CC[C@H](C)[C@@H]1NC(=O)[C@H](CC(C)C)N(C)C(=O)C[C@@H](C(=O)N(C)C)N(C)C(=O)[C@H]([C@@H](C)CC)N(C)C(=O)C2(CCCC2)NC(=O)[C@H](Cc2ccc(F)c(F)c2)N(C)C(=O)[C@H](CCc2ccc(C(F)(F)F)c(Cl)c2)NC(=O)CN(C)C(=O)[C@H](Cc2ccc(C)cc2)N(C)C(=O)[C@@H]2CCN2C(=O)[C@H](C)N(C)C1=O [Compound 1943] ([NMeL]I[NMeA][Aze][NMePhe(4-Me)][Sar][hPhe(3-Cl-4-CF3)][NMePhe(3,4-F2)][Ac5c][NMeI][NMeD]-NMe2; lactam N-11) | 8
CC[C@H](C)[C@@H]1NC(=O)[C@H](C)N(C)C(=O)C[C@@H](C(=O)N(C)C)N(C)C(=O)[C@H]([C@@H](C)CC)N(C)C(=O)C2(CCCC2)NC(=O)[C@H](Cc2cccc(I)c2)N(C)C(=O)[C@H](CCc2ccc(C(F)(F)F)c(Cl)c2)NC(=O)CN(C)C(=O)[C@H](Cc2ccc(C)cc2)N(C)C(=O)[C@@H]2CCN2C(=O)[C@H](C)N(C)C1=O [Compound 1944] ([NMeA]I[NMeA][Aze][NMePhe(4-Me)][Sar][hPhe(3-Cl-4-CF3)][NMePhe(3-I)][Ac5c][NMeI][NMeD]-NMe2; lactam N-11) | 45
CC[C@H](C)[C@@H]1NC(=O)[C@H](C)N(C)C(=O)C[C@@H](C(=O)N(C)C)N(C)C(=O)[C@H]([C@@H](C)CC)N(C)C(=O)C2(CCCC2)NC(=O)[C@H](Cc2cccc(OC(F)(F)F)c2)N(C)C(=O)[C@H](CCc2ccc(C(F)(F)F)c(Cl)c2)NC(=O)CN(C)C(=O)[C@H](Cc2ccc(C)cc2)N(C)C(=O)[C@@H]2CCN2C(=O)[C@H](C)N(C)C1=O [Compound 1945] ([NMeA]I[NMeA][Aze][NMePhe(4-Me)][Sar][hPhe(3-Cl-4-CF3)][X38][Ac5c][NMeI][NMeD]-NMe2; lactam N-11) | 18
CC[C@H](C)[C@@H]1NC(=O)[C@H](C)N(C)C(=O)C[C@@H](C(=O)N(C)C)N(C)C(=O)[C@H]([C@@H](C)CC)N(C)C(=O)C2(CCCC2)NC(=O)[C@H](Cc2ccc(F)cc2)N(C)C(=O)[C@H](CCc2ccc(C(F)(F)F)c(Cl)c2)NC(=O)CN(C)C(=O)[C@H](Cc2ccc(C(F)(F)F)cc2)N(C)C(=O)[C@@H]2CCN2C(=O)[C@H](C)N(C)C1=O [Compound 1951] ([NMeA]I[NMeA][Aze][NMePhe(4-CF3)][Sar][hPhe(3-Cl-4-CF3)][NMePhe(4-F)][Ac5c][NMeI][NMeD]-NMe2; lactam N-11) | 9.9
CC[C@H](C)[C@@H]1NC(=O)[C@H](CC(C)C)N(C)C(=O)C[C@@H](C(=O)N(C)C)N(C)C(=O)[C@H]([C@@H](C)CC)N(C)C(=O)C2(CCCC2)NC(=O)[C@H](Cc2ccc(F)cc2)N(C)C(=O)[C@H](CCc2cc(F)c(C(F)(F)F)c(F)c2)NC(=O)CN(C)C(=O)[C@H](Cc2ccc(C)cc2)N(C)C(=O)[C@@H]2CCN2C(=O)[C@H](C)N(C)C1=O [Compound 1952] ([NMeL]I[NMeA][Aze][NMePhe(4-Me)][Sar][hPhe(3,5-F2-4-CF3)][NMePhe(4-F)][Ac5c][NMeI][NMeD]-NMe2; lactam N-11) | 8.1
CC[C@H](C)[C@@H]1NC(=O)[C@H](C)N(C)C(=O)C[C@@H](C(=O)N(C)C)N(C)C(=O)[C@H]([C@@H](C)CC)N(C)C(=O)C2(CCCC2)NC(=O)[C@H](Cc2ccc(I)cc2)N(C)C(=O)[C@H](CCc2ccc(C(F)(F)F)c(Cl)c2)NC(=O)CN(C)C(=O)[C@H](Cc2ccc(C)cc2)N(C)C(=O)[C@@H]2CCN2C(=O)[C@H](C)N(C)C1=O [Compound 1953] ([NMeA]I[NMeA][Aze][NMePhe(4-Me)][Sar][hPhe(3-Cl-4-CF3)][NMePhe(4-I)][Ac5c][NMeI][NMeD]-NMe2; lactam N-11) | 51
CC[C@H](C)[C@@H]1NC(=O)[C@H](C)N(C)C(=O)C[C@@H](C(=O)N(C)C)N(C)C(=O)[C@H]([C@@H](C)CC)N(C)C(=O)C2(CCCC2)NC(=O)[C@H](Cc2ccc(C#N)cc2)N(C)C(=O)[C@H](CCc2ccc(C(F)(F)F)c(Cl)c2)NC(=O)CN(C)C(=O)[C@H](Cc2ccc(C)cc2)N(C)C(=O)[C@@H]2CCN2C(=O)[C@H](C)N(C)C1=O [Compound 1959] ([NMeA]I[NMeA][Aze][NMePhe(4-Me)][Sar][hPhe(3-Cl-4-CF3)][NMePhe(4-CN)][Ac5c][NMeI][NMeD]-NMe2; lactam N-11) | 5.2
CC[C@H](C)[C@@H]1NC(=O)[C@H](CC(C)C)N(C)C(=O)C[C@@H](COCC(=O)NC(C)(C)C)NC(=O)[C@H]([C@@H](C)CC)N(C)C(=O)C2(CCCC2)NC(=O)[C@@H]2CCCN2C(=O)[C@H](CCc2ccc(C(F)(F)F)c(Cl)c2)NC(=O)CN(C)C(=O)[C@H](Cc2ccc(C)cc2)N(C)C(=O)[C@@H]2CCN2C(=O)[C@H](C)N(C)C1=O [Compound 1960] ([NMeL]I[NMeA][Aze][NMePhe(4-Me)][Sar][hPhe(3-Cl-4-CF3)]P[Ac5c][NMeI]; linker N-C via X5) | 56
